Test results reported in patent US20250101448A1, “Protein, Gene and Their Vectors and Applications that Control Symbiotic Nitrogen Fixation Efficiency of Soybeans” (priority 2022, published 2025).

How the values were obtained:
[1] = tested on: GmNAP1 protein; test: isothermal titration calorimetry, binding of GmNAP1 to AMP/ADP/ATP/cAMP; parameters: species or system soybean; conditions: ITC, GmNAP1 expressed in Escherichia coli and purified
Text: (§1) Utilize the prokaryotic expression system of Escherichia coli to express and purify GmNAS1 and GmNAP1 proteins; and then utilize isothermal titration calorimetry to detect the binding ability of GmNAS1/GmNAP1 to AMP, ADP, ATP and cAMP.

[2] = tested on: GmNFYC10a-GFP; test: GmNFYC10a-GFP fluorescence localization in sections of mature root nodules; assay type: cell-based, soybean; conditions: nodule sections treated for 2 hours, 25 days after inoculation with Rhizobia
Text: This application also uses co-immunoprecipitation coupled mass spectrometry analysis technology to search for candidate proteins that bind to GmNAP1. In the mass spectrometry results, a transcription factor GmNFYC10a is discovered. […] In order to verify this speculation, we first obtains GmNFYC10a-GFP transgenic hairy roots, and carrying out vibration sectioning of mature root nodules 25 days after inoculation with Rhizobia. […] (FIG. 14).

[3] = tested on: GmNAS1 protein lacking any one CBS functional domain; test: isothermal titration calorimetry, GmNAS1 protein lacking a CBS functional domain, binding to AMP; parameters: species or system soybean; conditions: ITC
Text: as §1

[4] = tested on: interaction between GmNAS1 and GmNFYC10a; test: pull-down of GmNAS1 and GmNFYC10a interaction; assay type: binding, soybean
[5] = tested on: GmNAS1 protein; test: isothermal titration calorimetry, binding of GmNAS1 to AMP/ADP/ATP/cAMP; parameters: species or system soybean; conditions: ITC
Text: as §1

[6] = tested on: soybean root nodule cells; test: GmNFYC10a nuclear protein level and glycolysis gene expression in root nodules before and after sucrose treatment; assay type: in vivo; conditions: after sucrose treatment
[7] = tested on: soybean root nodules; test: nodule nitrogenase activity after sucrose treatment of plants inoculated with USDA110; assay type: in vivo; conditions: wild-type W82, 3% (w/v) sucrose solution for three days
Description: Design editing site identification primers based on the target sequences of sgRNA on GmNAS1 and GmNAP1, amplify the corresponding fragments and send them for sequencing. The sequencing results are analyzed and four function loss mutants of cr-nas1, cr-nap1, cr-nas1nap1-1 and cr-nas1nap1-2 are obtained. The nodule number, nodule weight and nodule nitrogenase activity on the 25th day after the mutant plants are inoculated with Rhizobia USDA110 are measured.
By utilizing gene editing technology, we obtain the functional knockout mutant cr-nas1 of GmNAS1, the functional knockout mutant cr-nap1 of GmNAP1, and the double knockout mutants cr-nas1nap1-1 and cr-nas1nap1-2 of GmNAS1 and GmNAP1. The root nodules of these four soybean mutants are phenotypically determined 25 days after inoculation with USDA110.

With `Nc1ncnc2c1ncn2[C@@H]1O[C@H](COP(=O)(O)OP(=O)(O)O)[C@@H](O)[C@H]1O` [ADP] the “binding to GmNAP1” value [1] was “does not bind”.

In the case of `Nc1ncnc2c1ncn2[C@@H]1O[C@H](COP(=O)(O)O)[C@@H](O)[C@H]1O` [AMP], the “GmNFYC10a-GFP fluorescence in the nucleus” value [2] is reported as “increased significantly”, the “binding to GmNAP1” value [1] is reported as “does not bind” and the “binding to GmNAS1 protein lacking any one CBS functional domain” value [3] is reported as “not capable of binding”. The “effect on interaction between GmNAS1 and GmNFYC10a” value [4] was “significantly inhibit”.

`Nc1ncnc2c1ncn2[C@@H]1O[C@H](COP(=O)(O)OP(=O)(O)OP(=O)(O)O)[C@@H](O)[C@H]1O` [ATP] was tested, and the “binding to GmNAS1” value [5] was “does not bind” and the “binding to GmNAP1” value [1] was “does not bind”.

With `CC[C@H]1/C=C/C=C/C[C@@H](C)[C@H](O)[C@@](C)(O)C(=O)[C@@H](C)[C@H](O)[C@@H](C)C(=O)[C@@H](C)[C@H](O)[C@@H](C)/C=C/C(=O)O[C@@H]2[C@H](C)[C@H](CC1)O[C@]1(CC[C@H](C)[C@H](C[C@@H](C)O)O1)[C@H]2C` [oligomycin] the “GmNFYC10a-GFP fluorescence in the nucleus” value [2] was “increased significantly”.

In the case of `OC[C@H]1O[C@@](CO)(O[C@H]2O[C@H](CO)[C@@H](O)[C@H](O)[C@H]2O)[C@@H](O)[C@@H]1O` [sucrose], the “protein content of GmNFYC10a in the nucleus” value ([6]; nuclei of soybean root nodule cells) is reported as “decreases significantly”, the “expression of glycolysis-related genes” value ([6]; root nodules) is reported as “significantly down-regulated” and the “nitrogenase activity of wild-type plants vs plants without sucrose” value [7] is reported as “significantly higher”.
